Source: paper PMC10823468, “Design, Synthesis, and Evaluation of New 1H-Benzo[d]imidazole Based PqsR Inhibitors as Adjuvant Therapy for Pseudomonas aeruginosa Infections” (Journal of Medicinal Chemistry, 2024)
Read-outs that look alike come from different tables or passages of the source.

Columns and labels:
[1] = test system: PqsR (PqsR-controlled pqsA promoter, PAO1-L mCTX::PpqsA-lux); assay: Bioluminescent reporter assay, PAO1-L mCTX::PpqsA-lux; assay type: cell-based, Pseudomonas aeruginosa; details: for pqs inhibitory activity in the PA bioluminescent reporter assay, in words: reporter strains; for IC50: Pseudomonas aeruginosa; for reduction in potency compared with 6f: PAO1-L; for activity relative to 6f / to each other, in words: PAO1-L reporter (6i, 6j, 6s: both reporter strains)
Protocol: (§1) An extensive SAR was performed on 6a to investigate the role of substitutions around various positions of the benzimidazole ring (groups R1–R3) as well as the aromatic tail (groups R4–R5) to fine-tune the potency of this series (6a–u) (Table 2). The activity of these analogues to inhibit the pqs QS system was evaluated in the PAO1-L and PA14 strains (that belong to the two major P. aeruginosa genomic lineages), both harboring a chromosomally integrated mCTX::PpqsA-lux transcriptional fusion to report for the activity of pqs system. Successful pharmacological blocking of AQ signal reception at the level of PqsR leads to a reduced transcription of the pqsA-lux genes and ultimately reduction in the luminescence readout.
(§2) Strains PA14 mCTX::PpqsA-lux and PAO1-L mCTX::PpqsA-lux were used to detect PqsR-controlled activation of the pqsA promoter, as previously described,[45] and the assay was performed according to a published method.[46] For initial screening, the compounds were tested at a concentration of 10 μM, which was prepared from a 10 mM stock, in DMSO.

[2] = test system: PqsR (PqsR-controlled pqsA promoter, PAO1-L mCTX::PpqsA-lux); set-up: method as in PMID 34503335; details: previously reported inhibitor; read-out: IC50 in P. aeruginosa PAO1-L; cited from earlier work
[3] = test system: PqsR (PqsR-controlled pqsA promoter, PA14 mCTX::PpqsA-lux); assay: Bioluminescent reporter assay, PA14 mCTX::PpqsA-lux; assay type: cell-based; details: Pseudomonas aeruginosa
Protocol: as §1, §2

[4] = test system: pyocyanin production in P. aeruginosa; assay: Pyocyanin quantification; assay type: cell-based, Pseudomonas aeruginosa; details: PAO1-L; concentration three times the IC50; relative to DMSO
Protocol: This assay was extended further to investigate the effect of 6f on pyocyanin production in different P. aeruginosa at 6f concentration of 200 nM (Figure 5b).
The experiment was performed following a published protocol with minor modifications. Strains were cultured into 5 mL of fresh medium overnight. […] Cells were centrifuged at 10 000 RCF for 10 min (Allegra 64R centrifuge, Beckman Coulter, High Wycombe, UK), and the supernatant was transferred to 15 mL falcon tubes with a HSW 10 mL Soft-Ject Syringe and a […] Sartorius syringe-driven filter (Fisher Brand, Loughborough, UK). Pyocyanin pigment was extracted into chloroform by mixing 7.5 mL of supernatant with 4.5 mL of chloroform. Pyocyanin was further extracted into 1.5 mL of 0.2 M HCL, which gave a pink/red solution, and the absorbance was measured at 520 nm.[47]

[5] = test system: A549 human lung epithelial carcinoma cell line; assay: A549 cytotoxicity assay (resazurin / alamar blue); assay type: cell-based; details: at concentrations up to 100 μM (1, 50, 100 μM), 24 h
Protocol: Establishing the safety profile of new chemical entities is paramount for further drug development. […] The assay employed resazurin reduction, a sensitive fluorometric assay widely used as a standard methodology in drug discovery research.[35] This assay relies on the ability of living cells to reduce resazurin to the fluorescent compound, resorufin, which indicates the rate of the metabolic activity as a means to quantify cell viability.
Cell viability was assessed according to Nimesh et al.[51] on A549 adenocarcinomic human alveolar basal epithelial cell line. The viability of the A549 cell line was assessed after overnight incubation with three concentrations (1, 50, and 100 μM) of the corresponding compound using alamar blue (resazurin) dye. Cells were maintained in the Dulbecco’s Modified Essential Medium (DMEM) supplemented with 10% fetal bovine serum (FBS) and 1% penicillin–streptomycin–neomycin (PSN). After that, 100 μL of suspended cells with a final concentration (1 × 10^4 cells/wall) were seeded in 96-well plates with 100 μL of (1, 50, 100 μM) concentrations of the tested compound was dispensed in sextuplicate. […] The plates were further incubated for 4–6 h and the intensity of the fluorescence was measured using an excitation light of 510 nm and measuring the fluorescence output at 590 nm. The cell viability in each well was normalized to the DMSO reading.

[6] = PA14, read-out: IC50 (μM) PA14 mCTX::PpqsA-lux
[7] = PAO1, read-out: IC50 (μM) PAO1-L mCTX::PpqsA-lux

Compound | IC50 [3, 6] | IC50 [1, 7] | further results
2-(4-(3-((5,6-Dichloro-1-methyl-1H-benzo[d]imidazol-2-yl) amino)-2-hydroxypropoxy) phenyl) Acetonitrile [Compound 6c] | – | – | pqs inhibitory activity in the PA bioluminescent reporter assay, in words [1]: abolished the activity
2-(4-(3-((5-Chloro-1-methyl-1H-benzo[d]imidazol-2-yl)amino)-2-hydroxypropoxy)phenyl) Acetonitrile [Compound 6b] | – | – | pqs inhibitory activity in the PA bioluminescent reporter assay, in words [1]: abolished the activity
N#CCc1ccc(OCC(O)Cn2cnc3ccc(Cl)cc3c2=O)cc1 (stereo not shown) [Compound 1] | – | – | IC50 [2]: 3.2 µM
Cn1c(NCC(O)COc2ccc(CC#N)cc2)nc2ccc(Cl)cc21 (stereo not shown) [Compound 6a, 2-(4-(3-((6-Chloro-1-methyl-1H-benzo[d]imidazol-2-yl)amino)-2-hydroxypropoxy)phenyl) Acetonitrile] | – | – | IC50 ([3]; PA14, read-out: IC50 (μM) PA14 PpqsA-lux): 0.2 ± 0.02 µM; enhancement of activity compared to 1 ([1]; PAO1-L laboratory strain): 15 fold; IC50 ([1]; PAO1, read-out: IC50 (μM) PAO1-L PpqsA-lux): 0.21 ± 0.04 µM
CC(C)(C)n1c(NCC(O)COc2ccc(CC#N)cc2)nc2ccc(Cl)cc21 (stereo not shown) [Compound 6g, 2-(4-(3-((1-(tert-Butyl)-6-chloro-1H-benzo[d]imidazol-2-yl)amino)-2-hydroxypropoxy)phenyl) Acetonitrile] | 0.23 ± 0.01 µM | 0.22 ± 0.01 µM | inhibition of pyocyanin production [4]: ~80%
CC(C)(C)Cn1c(NCC(O)COc2ccc(CC#N)cc2)nc2ccc(Cl)cc21 (stereo not shown) [Compound 6h, 2-(4-(3-((6-Chloro-1-neopentyl-1H-benzo[d]imidazol-2-yl)amino)-2-hydroxypropoxy)phenyl) Acetonitrile] | 0.25 µM | 0.38 µM | reduction in potency compared with 6f [1]: ~6 fold
N#CCc1ccc(OCC(O)CNc2nc3ccc(Cl)cc3n2C2CC2)cc1 (stereo not shown) [Compound 6i, 2-(4-(3-((6-Chloro-1-cyclopropyl-1H-benzo[d]imidazol-2-yl)amino)-2-hydroxypropoxy)phenyl) Acetonitrile] | 0.09 ± 0.02 µM | 0.07 ± 0.03 µM | activity relative to 6f / to each other, in words [1]: comparable potencies to 6f
N#CCc1ccc(OCC(O)CNc2nc3ccc(Cl)cc3n2C2CCC2)cc1 (stereo not shown) [Compound 6j, 2-(4-(3-((6-Chloro-1-cyclobutyl-1H-benzo[d]imidazol-2-yl)amino)-2-hydroxypropoxy)phenyl) Acetonitrile] | 0.31 ± 0.05 µM | 0.16 ± 0.01 µM | activity relative to 6f / to each other, in words [1]: comparable potencies to 6f
N#CCc1ccc(OCC(O)CNc2nc3ccc(Cl)cc3n2C2CCCC2)cc1 (stereo not shown) [Compound 6k, 2-(4-(3-((6-Chloro-1-cyclopentyl-1H-benzo[d]imidazol-2-yl)amino)-2-hydroxypropoxy)phenyl) Acetonitrile] | 0.47 ± 0.1 µM | 0.44 ± 0.1 µM | reduction in potency compared with 6f [1]: ~6 fold
N#CCc1ccc(OCC(O)CNc2nc3ccc(Cl)cc3n2C2CCCCC2)cc1 (stereo not shown) [Compound 6l, 2-(4-(3-((6-Chloro-1-cyclohexyl-1H-benzo[d]imidazol-2-yl)amino)-2-hydroxypropoxy)phenyl) Acetonitrile] | 1.4 ± 0.1 µM | 1.7 ± 0.5 µM | reduction in potency compared with 6f [1]: 25 fold
N#CCc1ccc(OCC(O)CNc2nc3ccc(Cl)cc3n2CCOCc2ccccc2)cc1 (stereo not shown) [Compound 6m, 2-(4-(3-((1-(2-(Benzyloxy)ethyl)-6-chloro-1H-benzo[d]imidazol-2-yl)amino)-2-hydroxypropoxy)phenyl) Acetonitrile] | – | 1.06 µM | reduction in potency compared with 6f [1]: 14 fold
CC(C)n1c(NCC(O)COc2ccc(CC#N)cc2F)nc2ccc(Cl)cc21 (stereo not shown) [Compound 6n, 2-(4-(3-((6-Chloro-1-isopropyl-1H-benzo[d]imidazol-2-yl)amino)-2-hydroxypropoxy)-3-fluorophenyl) Acetonitrile] | 0.11 ± 0.01 µM | 0.05 ± 0.02 µM | cytotoxicity for A549 cells [5]: not cytotoxic
CC(C)n1c(NCC(O)COc2ccc(CC#N)c(F)c2)nc2ccc(Cl)cc21 (stereo not shown) [Compound 6o, 2-(4-(3-((6-Chloro-1-isopropyl-1H-benzo[d]imidazol-2-yl)amino)-2-hydroxypropoxy)-2-fluorophenyl) Acetonitrile] | 0.09 ± 0.01 µM | 0.06 ± 0.03 µM | –
CC(C)n1c(NCC(O)COc2ccc(CC#N)cc2)nc2ccccc21 (stereo not shown) [Compound 6p, 2-(4-(2-Hydroxy-3-((1-isopropyl-1H-benzo[d]imidazol-2-yl)amino)propoxy)phenyl) Acetonitrile] | 1.03 µM | 0.77 µM | –
CN(C)CCn1c(NCC(O)COc2ccc(CC#N)cc2)nc2ccc(Cl)cc21 (stereo not shown) [Compound 6q, 2-(4-(3-((6-Chloro-1-(2-(dimethylamino)ethyl)-1H-benzo[d]imidazol-2-yl)amino)-2-hydroxypropoxy)phenyl) Acetonitrile] | – | – | pqs inhibitory activity in the PA bioluminescent reporter assay, in words [1]: obliterated the biological activity
CN1CCC(n2c(NCC(O)COc3ccc(CC#N)cc3)nc3ccc(Cl)cc32)CC1 (stereo not shown) [Compound 6r, 2-(4-(3-((6-Chloro-1-(1-methylpiperidin-4-yl)-1H-benzo[d]imidazol-2-yl)amino)-2-hydroxypropoxy)phenyl) Acetonitrile] | – | – | pqs inhibitory activity in the PA bioluminescent reporter assay, in words [1]: not active
N#CCc1ccc(OCC(O)CNc2nc3ccc(Cl)cc3n2C2COC2)cc1 (stereo not shown) [Compound 6s, 2-(4-(3-((6-Chloro-1-(oxetan-3-yl)-1H-benzo[d]imidazol-2-yl)amino)-2-hydroxypropoxy)phenyl) Acetonitrile] | 0.21 ± 0.03 µM | 0.24 ± 0.02 µM | activity relative to 6f / to each other, in words [1]: comparable potencies to 6f
COCCn1c(NCC(O)COc2ccc(CC#N)cc2)nc2ccc(Cl)cc21 (stereo not shown) [Compound 6t, 2-(4-(3-((6-Chloro-1-(2-methoxyethyl)-1H-benzo[d]imidazol-2-yl)amino)-2-hydroxypropoxy)phenyl) Acetonitrile] | 0.2 ± 0.05 µM | 0.18 ± 0.04 µM | reduction in potency compared with 6f [1]: 2 fold
N#CCc1ccc(OCC(O)CNc2nc3ccc(Cl)cc3n2CCO)cc1 (stereo not shown) [Compound 6u, 2-(4-(3-((6-Chloro-1-(2-hydroxyethyl)-1H-benzo[d]imidazol-2-yl)amino)-2-hydroxypropoxy)phenyl) Acetonitrile] | 0.1 ± 0.02 µM | 0.18 ± 0.05 µM | reduction in potency compared with 6f [1]: 2 fold
CC(C)n1c(NC[C@H](O)COc2ccc(CC#N)cc2)nc2ccc(Cl)cc21 [Compound 6v] | – | – | activity relative to 6f / to each other, in words [1]: comparable activity to the racemic compound 6f
CC(C)n1c(NC[C@@H](O)COc2ccc(CC#N)cc2)nc2ccc(Cl)cc21 [Compound 6w] | – | – | activity relative to 6f / to each other, in words [1]: comparable activity to the racemic compound 6f
N#CCc1ccc(OCC(O)CNc2nc3ccc(Cl)cc3o2)cc1 (stereo not shown) [Compound 7] | – | – | pqs inhibitory activity in the PA bioluminescent reporter assay, in words [1]: abolished pqs inhibitory activity
N#CCc1ccc(OCC(O)CNc2nc3ccc(Cl)cc3s2)cc1 (stereo not shown) [Compound 8] | – | – | pqs inhibitory activity in the PA bioluminescent reporter assay, in words [1]: abolished pqs inhibitory activity
Cn1c(SCC(O)COc2ccc(CC#N)cc2)nc2ccc(Cl)cc21 (stereo not shown) [Compound 11] | – | – | pqs inhibitory activity in the PA bioluminescent reporter assay, in words [1]: abolished pqs inhibitory activity
